Reference: US9096641B2, “Imidazolyl progesterone antagonists” (Evestra, Inc., priority 2013, dated 2015)

Experiments:
progesterone receptor = molecular target: T1, progesterone receptor (Homo sapiens, UniProt P06401); test: Progesterone Antagonist Screen (SelectScreen cell-based nuclear receptor profiling, GeneBLAzer beta-lactamase reporter); conditions: relative to RU486, which is 100%; progesterone receptor-LBD-UAS-bla HEK 293T cells; activated by control agonist R5020 at EC80
T1 construct: host or cells: HEK 293T
T1 sequence (P06401 679-913 limits assumed): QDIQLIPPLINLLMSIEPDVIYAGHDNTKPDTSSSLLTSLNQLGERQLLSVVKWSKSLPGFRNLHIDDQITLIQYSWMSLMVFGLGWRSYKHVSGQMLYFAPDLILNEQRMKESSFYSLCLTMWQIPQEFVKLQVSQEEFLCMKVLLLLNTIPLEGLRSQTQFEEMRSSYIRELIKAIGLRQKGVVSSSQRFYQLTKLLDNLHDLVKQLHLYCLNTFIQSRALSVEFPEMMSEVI
Experimental: (§1) Determination of the agonist/antagonist nature of the test compounds was carried out using Invitrogen's SelectScreen™ Cell-based nuclear receptor profiling service which uses the GeneBLAzer® Beta-lactamase reporter technology. Basically this assay uses a Beta-lactamase cDNA under transcriptional control of an Upstream Activator Sequence (UAS). The UAS is activated by the GAL4 transcription factor DNA binding domain (DBD), which is expressed as a fusion protein with the target receptor ligand binding domain (LBD). Upon ligand binding, the GAL4(DBD)-NR(LDB) binds to the UAS, which controls transcription of Beta-lactamase. Beta-lactamase cleaves a special engineered fluorescent substrate which results in a change in the measured fluorescence wavelength.
The generalized protocol used for the Progesterone Antagonist Screen, activated by control Agonist R5020 is as follows:
(§2) The progesterone receptor-LBD-UAS-bla HEK 293T cells are thawed and prepared as described above for the Agonist screen. 4 μL of a 10× serial dilution of control antagonist RU486 (starting concentration, 100 nM) or test compounds are added to appropriate wells of a TC-Treated assay plate. 32 μL of cell suspension is added to the wells which is then pre-incubated at 37° C./5% CO2 in a humidified incubator with test compounds and control antagonist titration for 30 min. 4 μL of a 10× control agonist (see above) at the predetermined EC80 concentration is added to wells containing the control antagonist or test compounds. The plate is incubated for 16-24 h at 37° C./5% CO2 in a humidified incubator. 8 μL of 1 μM Substrate Loading Solution is added to each well and the plate is incubated for 2 h at room temperature. The plate is then read on a fluorescence plate reader (Tecan Safire).

glucocorticoid receptor = molecular target: T2, glucocorticoid receptor (Homo sapiens, UniProt P04150); test: Glucocorticoid Antagonist Screen (SelectScreen cell-based nuclear receptor profiling, GeneBLAzer beta-lactamase reporter); conditions: relative to RU486, which is 100%; glucocorticoid receptor-LBD-UAS-bla HEK 293T cells; activated by control agonist Dexamethasone
T2 construct: host or cells: HEK 293T
T2 sequence (P04150 524-758 limits assumed): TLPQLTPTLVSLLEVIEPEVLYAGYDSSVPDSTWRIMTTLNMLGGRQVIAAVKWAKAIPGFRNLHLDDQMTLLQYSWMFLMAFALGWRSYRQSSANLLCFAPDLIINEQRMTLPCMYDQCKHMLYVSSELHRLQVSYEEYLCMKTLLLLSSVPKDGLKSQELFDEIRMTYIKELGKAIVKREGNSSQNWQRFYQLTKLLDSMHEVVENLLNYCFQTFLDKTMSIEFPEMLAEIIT
Experimental: as §1, §2
The generalized protocol for the Glucocorticoid Antagonist Screen activated by control Agonist Dexamethasone was carried out as described for the Progesterone Antagonist Screen with the exception that glucocorticoid receptor-LBD-UAS-bla HEK 293T cells were used. The control antagonist used for the glucocorticoid assay was also RU486.

SMILES	Progesterone Antagonist (%) (progesterone receptor)	Glucocorticoid Antagonist (%) (glucocorticoid receptor)
C[C@]12C[C@H](c3ccc(-n4ccnc4)cc3)C3=C4CCC(=O)C=C4CC[C@H]3[C@@H]1CC[C@@]2(O)C(F)(F)C(F)(F)F [Ia, 11β-(4′-(1-imidazolyl)phenyl)-17β-hydroxy-17-(1,1,2,2,2-pentafluoroethyl)-estra-4,9-diene-3-one]	267	9
C[C@]12C[C@H](c3ccc(-n4ccnc4)cc3)C3=C4CCC(=O)C=C4CC[C@H]3[C@@H]1CC[C@@]2(O)C#CC(F)(F)F [Ib, 11β-(4′-(1-imidazolyl)phenyl)-17β-hydroxy-17-(3,3,3-trifluoro-1-propynyl)-estra-4,9-diene-3-one]	34	83
C[C@]12C[C@H](c3ccc(-n4ccnc4)cc3)C3=C4CCC(=O)C=C4CCC3C1CC[C@@]2(O)/C=C/C(F)(F)F (stereo partly drawn) [Ic, 11β-(4′-(1-imidazolyl)phenyl)-17β-hydroxy-17-(3,3,3-trifluoroprop-1(E)-enyl)-estra-4,9-diene-3-one]	54	31
C=CC(F)(F)[C@]1(O)CC[C@H]2[C@@H]3CCC4=CC(=O)CCC4=C3[C@@H](c3ccc(-n4ccnc4)cc3)C[C@@]21C [Id, 11β-(4′-(1-imidazolyl)phenyl)-17β-hydroxy-17-(1,1-difluoroprop-2-enyl)-estra-4,9-diene-3-one]	90	13
C=C1CCOC12CCC1C3CCC4=CC(=O)CCC4=C3[C@@H](c3ccc(-n4ccnc4)cc3)C[C@@]12C (stereo partly drawn) [Ie, 11β-(4′-[1-imidazolyl]phenyl)-17,23-epoxy-19,24-dinor-17α-chola-4,9,20-triene-3-one]	163	5
CC(=O)c1ccc([C@H]2C[C@@]3(C)[C@@H](CC[C@@]3(O)C(F)(F)C(F)(F)F)[C@@H]3CCC4=CC(=O)CCC4=C32)cc1 [ZK 230211, reference compound]	81	6
